# Measured values as given in US20190254285A1, “SODIUM PHOSPHITE COMBINATIONS” (priority 2016, published 2019).
# How the values were obtained:
# Penicillium discolor = Penicillium discolor rot on wounded apples cv Gala; assay type: in vivo; conditions: for Efficacy (%): rot surface area vs untreated control, phosphite 16 mM, natamycin 100 ppm
# Experimental: Tested fruit: apples cv Gala from organic origin/SKAL certified. SKAL is a semi-governmental Dutch organization that controls organic production in the Netherlands. Wounds of the apples were checked at day 3. All phosphite concentrations were tested at a concentration of 16 mM of phosphonate. Natamycin (95%, Freda) solo and in combination was tested at a concentration of 100 ppm. […] Used pathogen: Penicillium discolor spore-suspension containing 4*10E6 spores/ml. Application: The fruit peel of the apple was damaged with a cork borer, ø4 mm and depth ˜0.5 cm into the fruit, with 2 wounds per apple. 40 microliter of a freshly prepared spore suspension of P. discolor was applied by pipette onto each wound. Subsequently, the spore-suspension was allowed to air-dry for 4 hours. Then, 50 microliter of a treatment as presented in the list above was applied by pipette to each wound. All fruits were kept at room temperature (20° C.). Wounds of the apples were checked after 4, 7 and 9 days of incubation. The efficacy is calculated by measuring the surface area (square mm) of the rot on the apples, and compared to the untreated control (see Table 4). Replicates: All treatments for the apple experiment were performed on six individual apples with two wounds each resulting in 12 wounds per treatment.
# powdery mildew = assay: Powdery mildew on cucumber leaf disks; assay type: in vivo; conditions: for Surface area (%): phosphite 16 mM, sulfur 0.1 g/L
# Experimental: Leaves were taken from 5 to 6 week old tomato plant. Per treatment 5 ml was sprayed over 5 leaves and dried for 1 hour. Circular disks were punched from the treated leaves with a diameter of 11 mm. 5 disks per treatment were put on water agar in 90 mm ø petri dishes. Water agar was made by sterilizing agar-agar (5 g/L, Carl Roth), benzimidazole (30 mg/L, Sigma-Aldrich) and antibiotic tetracycline hydrochloride (25 mg/L, Carl Roth) in water. Disks were infected by brushing powdery mildew spores from an infected leave until disks were visually covered by spores. After 10 days the surface area covered by powdery mildew was measured by putting pictures of the disks through an online image analyzer. Efficacy was calculated by comparing the treatments against the untreated control. Replicates: 20 disks were used per treatment.
# All phosphite concentrations were tested at a concentration of 16 mM of phosphite.
# Similar to Example 7 with the following differences: Leaf disk were taken from the dicotyledon leaves when the cucumber was around 2 weeks old. 5 disks per treatment were put on water agar in 90 mm ø petri dishes, with a total of 10 leaf disks per treatment. The formulated sulfur was tested at a concentration of 0.1 g sulfur/L. Assessment was done after 14 and 21 days after infection.
# black sigatoka = assay: Black sigatoka on banana plants, single leaf test, leaf 1 preventive, DITHANE 60 SC; assay type: in vivo; conditions: for Area infected (%) / Efficacy: 23 DAA, leaf 1 preventive, DITHANE 60 SC 5 liter/ha; for Area infected (%): phosphites 2 mol/l at 3 liter/ha; for Efficacy: vs untreated control
# Experimental: A single leaf test was established in a research station located in the community of “Anita Grande,” county of Jimenez, province of Limon, Costa Rica (latitude 10°15′14.15″N, longitude 83°44′20.29″W).
# Every treatment was established in individual plants. Treatments were applied to leaf number 1 to determine their effect as preventive. Leaf position is counted from top to bottom, whereby leaf number 1 is closest to the unfolded leaf. Treatments were distributed systematically to facilitate their location in the field.
# Product applications were done in an area of 10×10 cm, with a special equipment designed to simulate aerial applications. Application was done at 35 pound-force per square inch. Since weather conditions were highly conducive for disease development, and inoculum density was very high, no artificial inoculation was done. All treatments were applied to the same position on the leaf to minimize experimental error. All treatments were applied at the equivalent volume of 25 L ha^−1, as it is done commercially. A total of 3 sprays were applied, application A at Day 0, application B at 7 days after application A (DAA), and application C at day 13 DAA. VOLLEY® 88 OL was sprayed at 5.525 L/ha and the different phosphites were applied at the same PO3 concentration of 2 mol/l and were sprayed at 3 liter/ha.
# For the evaluation of the efficacy, the diseased area that was affected in the 10×10 cm leaf area was recorded. Evaluations were done 23, 30 and 36 DAA. Efficacy was calculated by comparing the treatments against the untreated control.
# Similar to Example 8, with the following differences: DITHANE® 60 SC (Dow AgroSciences) at a rate of 5 liter/ha was applied instead of […] and only one measurement was performed at 23 days after application A (DAA).
# Plasmopara viticola [1] = assay: Downy mildew on grapevine plants in greenhouse, phosphites and DITHANE Neotec; assay type: in vivo; conditions: for Incidence: 21 days after the second treatment application, phosphite 1.50 l of 2 M solution/100 l, DITHANE Neotec 0.05 kg/100 liter water
# Experimental: The trial was conducted with young plants of grapevine cultivar MERLOT in a greenhouse. Treatments were applied twice, once when 3 to 4 leaves were unfolded and the second application 10 days later. Each treatment had 4 plots as replications. The experimental set up was completely randomized and each plot had 3 plants. Inoculation of the plants with the pathogen Plasmopara viticola was performed 4 days after the second application. The suspension of the spores in water was prepared at the concentration of 20,000 to 40,000 spores/ml. All foliage ware inoculated. The different phosphites were applied at the same molar concentration of phosphite. With the high phosphite treatments, a concentration of 1.50 1 of a 2 M solution/100 1 was used and with the low phosphite treatment a concentration of 0.75 1 of a 2 M solution/100 1. […] An assessment on incidence and severity was performed 21 and 28 days after the second application. Efficacy was calculated for severity in comparison to untreated control infected. Similar to Example 5, with the following amendments: […] One measurement was performed at 21 days after the second application.
# Plasmopara viticola [2] = assay: Downy mildew on grapevine plants in greenhouse, phosphites and REVUS; assay type: in vivo; conditions: conclusion from Table 5
# Experimental: The trial was conducted with young plants of grapevine cultivar MERLOT in a greenhouse. […] Treatments were applied twice, once when 3 to 4 leaves were unfolded and the second application 10 days later. […] Inoculation of the plants with the pathogen Plasmopara viticola was performed 4 days after the second application. The suspension of the spores in water was prepared at the concentration of 20,000 to 40,000 spores/ml. All foliage ware inoculated. The different phosphites were applied at the same molar concentration of phosphite. With the high phosphite treatments, a concentration of 1.50 1 of a 2 M solution/100 1 was used and with the low phosphite treatment a concentration of 0.75 1 of a 2 M solution/100 1. […] An assessment on incidence and severity was performed 21 and 28 days after the second application. Efficacy was calculated for severity in comparison to untreated control infected.
# grapevine plants = assay: Phytotoxicity on grapevine plants; set-up: species or system grapevine cultivar MERLOT; conditions: in vivo
# Experimental: Treatments were applied twice, once when 3 to 4 leaves were unfolded and the second application 10 days later. […] The experimental set up was completely randomized and each plot had 3 plants. Inoculation of the plants with the pathogen Plasmopara viticola was performed 4 days after the second application. The suspension of the spores in water was prepared at the concentration of 20,000 to 40,000 spores/ml. All foliage ware inoculated. The different phosphites were applied at the same molar concentration of phosphite. With the high phosphite treatments, a concentration of 1.50 1 of a 2 M solution/100 1 was used and with the low phosphite treatment a concentration of 0.75 1 of a 2 M solution/100 1. REVUS® was used with a standard concentration of 0.015 liter/100 liter. An assessment on incidence and severity was performed 21 and 28 days after the second application. Efficacy was calculated for severity in comparison to untreated control infected.
Molecule,Efficacy (%) (Penicillium discolor; Day 4),Efficacy (%) (Penicillium discolor; Day 7),Efficacy (%) (Penicillium discolor; Day 9),Surface area (%) (powdery mildew; Day 14 after infection),Surface area (%) (powdery mildew; Day 21 after infection),Area infected (%) (black sigatoka),Efficacy (black sigatoka),Incidence (Plasmopara viticola [1]),Increase of the fungal efficacy of DITHANE Neotec compared with other phosphite salts (Plasmopara viticola [1]; conclusion from Table 6),Increase of the fungal efficacy of REVUS compared with other phosphite salts (Plasmopara viticola [2]),"Increase of the fungal efficacy of natamycin compared with other phosphite salts (Penicillium discolor; equimolar phosphite concentrations, days 4, 7, 9)",Increase of the fungal efficacy of sulfur compared with other phosphite salts (powdery mildew; conclusion from Table 12),Phytotox (%) (grapevine plants),"Increase of the fungal efficacy of DITHANE 60 SC compared with other phosphite salts (black sigatoka; conclusion from Table 9, preventive)"
N.N.O=[PH](O)O [(NH4)2HPO3],71%,60%,55%,7.21%,5.61%,8.0%,57.9,,,,,,,
O=[PH]([O-])[O-].[K+].[K+] [Treatment K2HPO3],59%,27%,22%,5.18%,4.84%,10.6%,44.2,5.0,,,,,,
disodium hydrogen phosphite [Na2HPO3],88%,74%,64%,9.15%,7.38%,12.6%,33.7,10.0,increases the fungal efficacy of DITHANE® Neotec the best,increases the fungal efficacy of REVUS® the best,increases the fungal efficacy of natamycin the best at all time points,increases the fungal efficacy of sulfur the best,0%,increases the fungal efficacy of DITHANE® 60 SC the best
